From ChEMBL document CHEMBL1146315, “Synthesis and evaluation of unsaturated caprolactams as interleukin-1beta converting enzyme (ICE) inhibitors” (Bioorg Med Chem, 2007)

Tests used:
Caspase-1 = biological target: T1, Caspase-1 (Homo sapiens, UniProt P29466); assay: Inhibition of ICE
T1 sequence (P29466 whole entry): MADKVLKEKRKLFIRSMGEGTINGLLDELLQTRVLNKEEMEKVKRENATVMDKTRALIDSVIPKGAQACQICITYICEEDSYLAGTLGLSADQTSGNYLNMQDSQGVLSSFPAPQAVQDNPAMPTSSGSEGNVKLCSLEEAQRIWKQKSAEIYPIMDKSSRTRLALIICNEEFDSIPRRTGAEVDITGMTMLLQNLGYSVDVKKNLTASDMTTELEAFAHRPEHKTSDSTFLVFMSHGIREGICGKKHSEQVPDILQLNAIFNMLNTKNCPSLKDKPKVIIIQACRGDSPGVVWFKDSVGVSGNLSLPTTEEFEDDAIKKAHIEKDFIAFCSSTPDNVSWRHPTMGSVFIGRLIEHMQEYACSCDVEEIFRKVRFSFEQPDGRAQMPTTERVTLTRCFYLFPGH

THP-1 = assay: Inhibition of IL1-beta production in THP1 cells; assay type: functional, cell-based; conditions: Homo sapiens
[1] = Half life in Sprague-Dawley rat at 30 mg/kg, iv; assay type: ADME, organism-based; design: dose 30 mg/kg, route intravenous; conditions: in vivo
Caspase-8 = Caspase-8 (Homo sapiens, UniProt Q14790); assay: Inhibition of caspase 8
Sequence of Caspase-8 (Q14790 217-374 limits assumed): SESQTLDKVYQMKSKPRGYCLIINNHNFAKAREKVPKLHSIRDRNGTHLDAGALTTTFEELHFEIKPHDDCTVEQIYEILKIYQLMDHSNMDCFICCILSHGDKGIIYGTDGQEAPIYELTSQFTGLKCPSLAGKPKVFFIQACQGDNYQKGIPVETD
Sequence of Caspase-8 (Q14790 385-479 limits assumed): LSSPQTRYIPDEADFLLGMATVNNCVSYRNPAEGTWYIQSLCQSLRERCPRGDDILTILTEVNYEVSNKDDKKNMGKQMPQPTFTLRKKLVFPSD

Caspase-3 = biological target: T2, Caspase-3 (Homo sapiens, UniProt P42574); assay: Inhibition of caspase 3
T2 sequence (P42574 whole entry): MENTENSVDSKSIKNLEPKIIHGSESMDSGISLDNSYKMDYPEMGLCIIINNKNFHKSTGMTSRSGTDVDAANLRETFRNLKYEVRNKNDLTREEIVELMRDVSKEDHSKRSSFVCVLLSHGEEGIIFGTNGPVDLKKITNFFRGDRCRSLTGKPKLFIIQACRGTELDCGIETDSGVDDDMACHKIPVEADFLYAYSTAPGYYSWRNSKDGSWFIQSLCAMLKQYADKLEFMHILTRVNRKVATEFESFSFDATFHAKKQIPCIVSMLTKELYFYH

[2] = Half life in Sprague-Dawley rat at 30 mg/kg, po; assay type: ADME, organism-based; design: dose 30 mg/kg, route oral; conditions: in vivo
Rattus norvegicus [3] = assay: AUC (0 to infinity) in Sprague-Dawley rat at 30 mg/kg, iv; assay type: ADME, organism-based, Plasma; design: time infinity, dose 30 mg/kg, route intravenous; conditions: in vivo
[4] = Cmax in Sprague-Dawley rat at 30 mg/kg, iv; assay type: ADME, organism-based; design: dose 30 mg/kg, route intravenous; conditions: in vivo
Rattus norvegicus [5] = assay: (§1) AUC (0 to infinity) in Sprague-Dawley rat at 30 mg/kg, po; assay type: ADME, organism-based, Plasma; design: time infinity, dose 30 mg/kg, route oral; conditions: in vivo
[6] = Cmax in Sprague-Dawley rat at 30 mg/kg, po; assay type: ADME, organism-based; design: dose 30 mg/kg, route oral; conditions: in vivo
Rattus norvegicus [7] = assay: (§2) Bioavailability in Sprague-Dawley rat at 30 mg/kg, po; assay type: ADME, organism-based; conditions: in vivo
[8] = as §1; assay type: ADME, organism-based, Plasma; design: time infinity, dose 30 mg/kg, route oral; conditions: Sprague-Dawley, plasma
[9] = as §2; assay type: ADME, organism-based; conditions: Sprague-Dawley, in vivo

| IC50 (Caspase-1) [nM] | IC50 (THP-1) [nM] | IC50 (Caspase-8) [nM] | IC50 (Caspase-3) [µM] | SMILES | also measured |
| --- | --- | --- | --- | --- | --- |
| 3 | 182 | – | – | O=C[C@H](CC(=O)O)NC(=O)[C@@H]1COC[C@@H]2C/C=C\C[C@H](NC(=O)c3nccc4ccccc34)C(=O)N21 | – |
| 77 | – | – | – | O=C(CN1CC/C=C\C[C@H](NC(=O)c2nccc3ccccc23)C1=O)N[C@H]1CC(=O)OC1O (some centres undefined) | – |
| 14 | 100 | 2160 | > 10 | O=C(CN1CC=CC[C@H](NC(=O)c2ccc3ccccc3c2)C1=O)N[C@H]1CC(=O)OC1O (some centres undefined) | half-life [1]: 12 min; half-life [2]: 78 min; AUC (Rattus norvegicus [3]): 1970 ng·h/mL; Cmax [4]: 6790 ng/mL; AUC (Rattus norvegicus [5]): 320 ng·h/mL; Cmax [6]: 264 ng/mL; F (Rattus norvegicus [7]): 2% |
| 20 | 712 | 1450 | > 10 | O=C(CN1CC=CC[C@H](NC(=O)c2cc3ccccc3s2)C1=O)N[C@H]1CC(=O)OC1O (some centres undefined) | – |
| 168 | 1080 | 4200 | > 10 | O=C(CN1CC=CC[C@H](NC(=O)c2ccccc2)C1=O)N[C@H]1CC(=O)OC1O (some centres undefined) | – |
| 29 | 383 | 1180 | > 10 | O=C(CN1CC=CC[C@H](NC(=O)c2cccc(Cl)c2)C1=O)N[C@H]1CC(=O)OC1O (some centres undefined) | – |
| 15 | 71 | 554 | > 10 | O=C(CN1CC=CC[C@H](NC(=O)c2cc(Cl)ccc2Cl)C1=O)N[C@H]1CC(=O)OC1O (some centres undefined) | – |
| 13 | 871 | 537 | > 10 | C[C@H](C(=O)N[C@H]1CC(=O)OC1O)N1CC=CC[C@H](NC(=O)c2ccc3ccccc3c2)C1=O (some centres undefined) | – |
| 19 | 153 | 2690 | > 10 | CC1=CC[C@H](NC(=O)c2ccc3ccccc3c2)C(=O)N(CC(=O)N[C@H]2CC(=O)OC2O)C1 (some centres undefined) | – |
| – | – | – | – | CCOC1OC(=O)C[C@@H]1NC(=O)CN1CC(CNC(=O)c2ccc(OC)cc2)=CC[C@H](NC(=O)c2ccc3ccccc3c2)C1=O (some centres undefined) | half-life [2]: 426 min; AUC(0-inf) [8]: 30 ng·h/mL; Cmax [6]: 9 ng/mL |
| 2 | 1340 | 887 | 3.37 | COc1ccccc1C(=O)NCC1=CC[C@H](NC(=O)c2ccc3ccccc3c2)C(=O)N(CC(=O)N[C@H]2CC(=O)OC2O)C1 (some centres undefined) | – |
| 8 | 1280 | 1610 | > 10 | O=C(CN1CC(CSCc2ccccc2)=CC[C@H](NC(=O)c2ccc3ccccc3c2)C1=O)N[C@H]1CC(=O)OC1O (some centres undefined) | – |
| 1 | 95 | 471 | 1.13 | COc1ccc(C(=O)NCC2=CC[C@H](NC(=O)c3ccc4ccccc4c3)C(=O)N(CC(=O)N[C@H]3CC(=O)OC3O)C2)cc1 (some centres undefined) | – |
| – | – | – | – | CCOC1OC(=O)C[C@@H]1NC(=O)CN1CC=CC[C@H](NC(=O)c2ccc3ccccc3c2)C1=O (some centres undefined) | half-life [2]: 204 min; AUC(0-inf) [8]: 21000 ng·h/mL; Cmax [6]: 9360 ng/mL; bioavailability [9]: > 90% |
| – | – | – | – | CCOC1OC(=O)C[C@@H]1NC(=O)[C@H](C)N1CC=CC[C@H](NC(=O)c2ccc3ccccc3c2)C1=O (some centres undefined) | half-life [2]: 306 min; AUC(0-inf) [8]: 4530 ng·h/mL; Cmax [6]: 720 ng/mL |
| 1 | 36 | 162 | 7.51 | C[C@@H](C(=O)N[C@H]1CC(=O)OC1O)N1CC=CC[C@H](NC(=O)c2ccc3ccccc3c2)C1=O (some centres undefined) | – |
| 4 | 188 | – | – | O=C[C@H](CC(=O)O)NC(=O)[C@@H]1CC[C@@H]2C/C=C\C[C@H](NC(=O)c3nccc4ccccc34)C(=O)N21 | – |
| 27 | 586 | 2930 | > 10 | O=C(CN1CC=CC[C@H](NC(=O)c2nccc3ccccc23)C1=O)N[C@H]1CC(=O)OC1O (some centres undefined) | – |
| 2 | 466 | 1080 | 1.7 | O=C(CN1CC(CNC(=O)c2ccccc2)=CC[C@H](NC(=O)c2ccc3ccccc3c2)C1=O)N[C@H]1CC(=O)OC1O (some centres undefined) | – |
| 11 | 554 | 1960 | > 10 | O=C(CN1CC=CC[C@H](NC(=O)c2cccc(C(F)(F)F)c2)C1=O)N[C@H]1CC(=O)OC1O (some centres undefined) | – |
| 1 | 243 | 448 | 1.08 | COc1cccc(C(=O)NCC2=CC[C@H](NC(=O)c3ccc4ccccc4c3)C(=O)N(CC(=O)N[C@H]3CC(=O)OC3O)C2)c1 (some centres undefined) | – |
| 7 | 232 | 10000 | > 10 | O=C(CN1CC(CNCc2ccccc2)=CC[C@H](NC(=O)c2ccc3ccccc3c2)C1=O)N[C@H]1CC(=O)OC1O (some centres undefined) | – |
| 3 | 326 | 109 | 6.81 | O=C(CN1CC(CNS(=O)(=O)c2ccccc2)=CC[C@H](NC(=O)c2ccc3ccccc3c2)C1=O)N[C@H]1CC(=O)OC1O (some centres undefined) | – |
| 53 | 1230 | 1230 | > 10 | COc1cccc(C(=O)N[C@H]2CC=CCN(CC(=O)N[C@H]3CC(=O)OC3O)C2=O)c1 (some centres undefined) | – |
| 22 | 543 | 2110 | > 10 | O=C(CN1CC(CO)=CC[C@H](NC(=O)c2ccc3ccccc3c2)C1=O)N[C@H]1CC(=O)OC1O (some centres undefined) | – |
| 4 | – | – | – | O=C[C@H](CC(=O)O)NC(=O)[C@@H]1CCCN2C(=O)CC[C@H](NC(=O)c3nccc4ccccc34)C(=O)N12 [VRT-18858] | – |
